Our source for the TGI values is PubChem BioAssay (NCI).

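1) Cells in 96-well plates. 2) Compound, 48 h, 5 concentrations. 3) Linear interpolation between surrounding doses. 4) Unreached endpoint = highest concentration. TGI denotes the concentration required for complete inhibition of growth.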

Holding throughout (experiment): NCI-60 cell line screen, 48 h
Assay [1] deals with RPMI-8226 leukemia.
Assay [2] concerns UO-31 renal.
In assay [3] the test system is HCT-116 colon.
For assay [4], the system named is 786-0 renal.
The test system of assay [5] is HCT-15 colon.
Assay [6] deals with T-47D breast.
The test system of assay [7] is SN12C renal.
Assay [8] relates to NCI-H23 lung.
Assay [9] has as its system BT-549 breast.
In assay [10] the test system is SF-295 CNS.
Assay [11] has as its system SNB-75 CNS.
The subject of assay [12] is MCF7 breast.
Assay [13] deals with UACC-62 melanoma.
In assay [14] the test system is EKVX NSCLC.
For assay [15], the system named is KM12 colon.
Assay [16] relates to M14 melanoma.
The subject of assay [17] is SK-MEL-5 melanoma.
Assay [18] has as its system COLO 205 colon.
For assay [19], the system named is HOP-92 NSCLC.

With `CSc1nc(Br)nc2ncn(C3CC(Oc4ccc(C)cc4)C(COc4ccc(C)cc4)O3)c12` (configuration not stated), the TGI in assay [1] is more than 100 µM; in assay [2], 75.7 µM; in assay [3] it was more than 100 µM; in [4], more than 100 µM; in assay [5] it was more than 100 µM; in [6], more than 100 µM. Also, the TGI in assay [7], in [8], in assay [9], in assay [10], in assay [11] and in assay [12] was more than 100 µM throughout. The TGI in [13], in [14], in assay [15], in assay [16], in [17] and in [18] was more than 100 µM throughout. For the same compound, the TGI in [19] is more than 100 µM.

Consider `COc1ccc(C(=C2C(=O)N(c3ccccc3)C(=O)C2=C(C)C)c2ccc(OC)cc2)cc1`, for which the TGI was more than 43.7 µM in assay [1]; more than 31 µM in assay [2]; more than 51.1 µM in [3]; 23.7 µM in [4]; more than 32.5 µM in [5]; more than 100 µM in assay [6]. In addition, the TGI is more than 38.2 µM in assay [7]; more than 39.4 µM in assay [8]; more than 39.2 µM in assay [9]; more than 49 µM in assay [10]; more than 43.6 µM in assay [11]; more than 45.4 µM in assay [12]. Besides, the TGI in assay [13] was more than 34.2 µM; in assay [14] it was more than 24.4 µM; in [15], more than 54.4 µM; in assay [16], 13.5 µM; in [17], more than 51.4 µM; in [18] it was more than 33.3 µM. Also, the TGI in assay [19] was more than 31.6 µM.

For the compound `C=C1CC(C)(COc2ccc3c(C)cc(=O)oc3c2)OC1=O` (configuration not stated), the TGI stood at 2.57 µM in [1]; 18.9 µM in [2]; 4.72 µM in assay [3]; 5.65 µM in [4]; 4.23 µM in [5]; 3.8 µM in assay [6]. For the same compound, the TGI in assay [7] amounted to 16.8 µM; in assay [8] it was 14.1 µM; in assay [9], 7.56 µM; in assay [10], 16.3 µM; in assay [11] it was 16.3 µM; in assay [12], 2.39 µM. For the same compound, the TGI worked out at 4.8 µM in assay [13]; 17.8 µM in assay [14]; 17.4 µM in [15]; 3.35 µM in [16]; 3.37 µM in [17]; 2.86 µM in assay [18]. The same compound had a TGI in [19] of 3.25 µM.

Regarding `Cn1cnc2c1c(=O)n(CCNCCO)c(=O)n2C`, the TGI in [1], in assay [2], in [3], in [4], in [5] and in [6] was more than 100 µM each time. In addition, the TGI in assay [7], in [8], in assay [9], in assay [10], in assay [11] and in [12] was more than 100 µM throughout. Moreover, the TGI in assay [13], in [14], in [15], in assay [16], in [17] and in assay [18] was more than 100 µM each time. In [19], this compound yielded a TGI of more than 100 µM.

With `O=C(N/N=C/c1ccc(Cl)cc1)c1ccccc1Nc1ccccc1C(=O)N/N=C/c1ccc(Cl)cc1`, the TGI in assay [1], in assay [2], in [3], in assay [4], in assay [5] and in assay [6] was more than 100 µM in each case. In addition, the TGI in [7], in [8], in [9], in [10], in assay [11] and in assay [12] was more than 100 µM each time. The TGI in [13], in assay [14], in assay [15], in [16], in assay [17] and in assay [18] was more than 100 µM throughout. Also, in [19], the TGI is more than 100 µM.

Turning to `Cn1ccoc1=Nc1ccc(Cl)c(Cl)c1`, the TGI in [1], in assay [2], in assay [3], in assay [4], in assay [5] and in assay [6] was more than 10 µM throughout. For the same compound, the TGI in assay [7], in assay [8], in assay [9], in assay [10], in assay [11] and in assay [12] was more than 10 µM each time. In addition, the TGI in [13], in assay [14], in [15], in assay [16], in [17] and in assay [18] was more than 10 µM each time. This compound showed a TGI in [19] of more than 10 µM.

For the compound `CC(C)NC(=O)OCc1c(COC(=O)NC(C)C)c(-c2cc[n+](COC(=O)C(C)C)cc2)n2c1CCC2`, the TGI in assay [1], in assay [2], in [3], in assay [4], in [5] and in assay [6] was more than 100 µM each time. The TGI in [7], in assay [8], in assay [9], in assay [10], in assay [11] and in assay [12] was more than 100 µM throughout. For the same compound, the TGI in assay [13], in [14], in assay [15], in assay [16], in [17] and in assay [18] was more than 100 µM in each case. Further, the TGI in assay [19] is more than 100 µM.

Regarding `N#CCC1(c2ccc(Cl)cc2)NC(=O)c2ccccc21` (configuration not stated), the TGI in assay [1], in [2], in assay [3], in [4], in [5] and in assay [6] was more than 100 µM throughout. The TGI in assay [7], in assay [8], in assay [9], in [10], in assay [11] and in [12] was more than 100 µM in each case. For the same compound, the TGI in assay [13], in assay [14], in [15], in assay [16], in assay [17] and in assay [18] was more than 100 µM each time. For the same compound, the TGI in assay [19] is more than 100 µM.
